Read-outs that look alike come from different tables or passages of the source.
Assays:
extracellular glutamate = assay: Stroke-induced rise in brain glutamate levels (microdialysis); type: in vivo, Sprague Dawley rats; details: 100 mg/kg IP then 20 mg/kg/hr IV
cortical cell cultures = assay: In vitro ischemia assay (KCN/2-DG) in cortical cell cultures; type: cell-based, rat
sciatic nerve = assay: Myelin formation following sciatic nerve cryolesion; type: in vivo, mouse
Procedure: Cryolesion of the mouse sciatic nerve was performed according to Koenig et al. , Science, Vol. 268, pp. 1500-1503 (June 1995). In brief, each mouse was anesthetized and its sciatic nerve was exposed in the upper thigh and cryolesioned using a copper cryode (diameter=0.5 mm) that was dipped in liquid nitrogen and repeatedly applied to the upper part of the nerve. The extent of the lesion was approximately 1 mm.
Both right and left sciatic nerves of each mouse were lesioned; right-side nerves were treated with silicone implant strips containing vehicle alone while left-side nerves were treated with silicone implants containing 2-(phosphonomethyl)pentanedioic acid. Fifteen days after surgery, the mice were sacrificed and their sciatic nerve segments were collected and processed for light microscopy and TEM analysis. Randomly chosen fields 2-3 mm distal to the lesion were qualitatively analyzed by light microscopy using 1-micrometer-thick toluidine blue stained cross sections and photographic images were captured.

Sprague-Dawley rats [1] = assay: Dynorphin-induced spinal cord injury; type: in vivo, rat
Procedure: Dynorphin-induced spinal cord injury was performed according to Long et al., JPET, Vol. 269, No. 1, pp. 358-366 (1993). In brief, spinal subarachnoid injections were delivered using 30-gauge needles inserted between the L4-L5 vertebrae of male Sprague-Dawley rats (300-350 g). The rats were anesthetized with halothane and dorsal midline incisions were made immediately rostral to the pelvic girdle. By using the vertebral processes as guides, the needle was advanced to pass into the subarachnoid space surrounding the cauda equina. Correct needle placement was verified by CSF flow from the needle after its insertion. […] After injections, the incisions were treated with the topical antibacterial furazolidone and closed with wound clips. Rapid recovery from the halothane anesthesia enabled neurological evaluations to be made within 5 minutes of injections.
Neurological function was evaluated using a 5-point ordinal scale, with scores being assigned as follows: 4=normal motor function; 3=mild paraparesis, with the ability to support weight and walk with impairment; 2=paraparesis, with the ability to make walking movements without fully supporting weight; 1=severe paraparesis, in which rats could make limited hind limb movement, but not walking movement; and 0=flaccid paralysis, with complete absence of any hind limb movement. Neurological evaluations were made 24 hours after dynorphin A injection.
Differences in the neurological scores among treatment groups were determined by means of the Mann-Whitney U test or the Kruskal-Wallis test.

Sprague-Dawley rats [2] = assay: Brain injury following MCAO in Sprague-Dawley rats; type: in vivo, rat; details: for mean total brain infarct volume: then 20 mg/kg/hr IV 4 hours
Dunning G tumors = assay: In vivo Dunning G tumor model, subcutaneous Compound 3; set-up: species or system male Copenhagen syngenic rats
Procedure: Male Copenhagen syngenic rats, age 8 to 10 weeks, were injected in both flanks with 10^7 Dunning G cells. […] Controls received 50 mM HEPES s.c. daily. Tumors were measured twice a week.
Response to treatment was monitored in two ways. First, mean tumor volume for each group was presented as tumor:control ratio (% T/C) and these values were compared at one point in time. Second, tumor volume versus time was monitored.

[3] = Rattus norvegicus, read-out: % Toxicity

Procedure for LNCaP cells: On the 7th day, the cells are pulsed with 3H-thymidine for 4 hours, harvested and measured for radioactivity. Values represent means +/- SEM of 6 separate cell wells for each treatment. All experiments are performed at least twice.
LNCaP cells are obtained from Dr. William Nelson at the Johns Hopkins School of Medicine in Baltimore, Md. DU145 cells are obtained from American Type Culture Collection (Rockville, Md.). Cells are grown in RPMI-1640 media supplemented with 5% heat-inactivated fetal calf serum, 2 mM-glutamine, 100 units/ml penicillin, and 100 μg/ml streptomycin (Paragon) in a humidified incubator at 37° C. in a 5% CO2 /95% air atmosphere.
The cells are suspended at 1×10^3 cells/ml in RPMI-1640 media and seeded into 24-well plates at 500 μl per well. […] 5 ml UltimaGold (Packard) scintillation cocktail is added and radioactivity is quantitated using a Beckman LS6001 scintillation counter.

For O=C(O)CCC(CP(=O)(O)O)C(=O)O (stereo not drawn) [Compound 3, 2-(phosphonomethyl)pentanedioic acid], the “stroke-induced glutamate changes, parietal cortex (in words)” value (extracellular glutamate; p<0.01) was “completely prevented concurrent glutamate changes in the parietal cortex”, the “stroke-induced extracellular glutamate increase, striatum (in words)” value (extracellular glutamate; p<0.05) was “significantly attenuated stroke-induced extracellular glutamate increases in the striatum” and the “glutamate, frontal cortex (in words)” value (extracellular glutamate; vs vehicle) was “no subsequent difference between the vehicle and 2-(phosphonomethyl)pentanedioic acid treated groups”. For the same compound, the “ischemic toxicity (in words)” value (cortical cell cultures; 100 pM to 1 μM) was “toxicity decreased as the concentration of 2-(phosphonomethyl)pentanedioic acid increased”, the activity at 0.0001 µM (cortical cell cultures; [3]) was 66.6 ± 4.38% and the activity at 0.001 µM (cortical cell cultures; [3]) was 42.3 ± 9.34%. For the same compound, the activity at 0.01 µM (cortical cell cultures; [3]) was 33.1 ± 9.62%, the activity at 0.1 µM (cortical cell cultures; [3]) was 30.2 ± 9.43% and the activity at 1 µM (cortical cell cultures; [3]) was 8.56 ± 8.22%. For the same compound, the “# of myelinated lamellae” value (sciatic nerve; ave. + SEM, vehicle 13.77 ± 0.09, p < 0.005) was 16.53 ± 0.65, the “% increase of myelinated lamellae over vehicle” value (sciatic nerve; p < 0.005) was 20% and the “ratio of # of myelinated axons (drug/vehicle)” value (sciatic nerve; silicone implant, approx. 2.5 μg/day, 15 days) was 1.5. For the same compound, the “increase in number of myelinated axons” value (sciatic nerve; vs vehicle, 3 mm distal to cryolesion) was 1.5 fold, the “increase in myelin thickness” value (sciatic nerve; vs vehicle, 3 mm distal to cryolesion, p<0.005) was 20% and the “motor scores (in words)” value (Sprague-Dawley rats [1]; 4 μmoles with dynorphin A, 24 hours, p<0.05 vs vehicle) was “significant improvement in motor scores”. For the same compound, the rats ambulatory (Sprague-Dawley rats [1]; 24 hours post-injection, 15 rats, vehicle 14%, p<0.05) was 73%, the “protection against dynorphin-induced spinal cord injury (in words)” value (Sprague-Dawley rats [1]; rat, in vivo) was “provides effective protection against dynorphin-induced spinal cord injury” and the “mean total brain infarct volume” value (Sprague-Dawley rats [2]; 100 mg/kg IP 20 minute pre-treatment, p=0.003 vs. vehicle (293±26)) was 122±26 mm^3. For the same compound, the “mean total brain infarct volume” value (Sprague-Dawley rats [2]; 100 mg/kg IP 30 minute post-treatment, p=0.2 vs. vehicle (293±26)) was 208±40 mm^3, the “mean total brain infarct volume” value (Sprague-Dawley rats [2]; 100 mg/kg IP 60 minute post-treatment, p=0.015 vs. vehicle (293±26)) was 125±57 mm^3 and the “mean total brain infarct volume” value (Sprague-Dawley rats [2]; 100 mg/kg IP 120 minute post-treatment, p=0.005 vs. vehicle (293±26)) was 133±35 mm^3. The “neuroprotection in rat MCAO model (in words)” value (Sprague-Dawley rats [2]; up to 2 hours post-occlusion) was “neuroprotective in rat MCAO model of stroke when administered up to 2 hours post-occlusion”, the “effect on tumor growth (in words)” value (Dunning G tumors; 1 mg/kg s.c.) was “no effect on tumor growth” and the “effect on tumor growth (in words)” value (Dunning G tumors; 3 mg/kg s.c.) was “no effect on tumor growth”. The “tumor size, % of controls” value (Dunning G tumors; 10 mg/kg s.c., p=0.03) was 38 % of controls, the “tumor size, % of controls” value (Dunning G tumors; 30 mg/kg s.c.) was 22 % of controls and the “3H-Thymidine Incorporation” value (LNCaP cells; 10 pM) was 3078 ± 1006 dpm/well. For the same compound, the “3H-Thymidine Incorporation” value (LNCaP cells; 100 pM) was 2062 ± 595 dpm/well, the “3H-Thymidine Incorporation” value (LNCaP cells; 1 nM) was 1001 ± 52 dpm/well and the “3H-Thymidine Incorporation” value (LNCaP cells; 10 nM) was 664 ± 366 dpm/well.

Source: US6121252A, “Phosphinic acid derivatives” (priority 1998, dated 2000)
